In patent US11965091B2, “Biocide free associative thickener” (Rohm and Haas Company, priority 2019, dated 2024):
Counter-ions that a name gives are not always drawn.

System: standard pool of bacteria, yeasts, and molds
Experiment: Microbial challenge test
Type: cell-based
Details: for microbial challenge test (by acid): HEURs treated with the named acid
Method: Compositions within and outside the scope of the present invention were tested for microbial growth susceptibility using a series of microbial challenge tests.
Samples were inoculated 2 times at 7-d intervals with 10^6-10^7 colony forming units per milliliter of sample (CFU/mL) of a standard pool of bacteria, yeasts, and molds obtained from American Type Culture Collection (ATCC) that are common contaminants in coatings. Once inoculated, the samples were stored in 25° C. incubators. Test samples were monitored for microbial contamination by agar plating using a standard streak plate method. Samples were plated 1 and 7 day after each microbial challenge onto trypticase soy agar (TSA) and potato dextrose agar (PDA) plates. All agar plates were checked daily up to 7 d after plating to determine the number of microorganisms surviving in the test samples. When not being checked, the agar plates were stored in incubators, 30° C. for TSA plates and 25° C. for PDA plates. The extent of microbial contamination was established by counting the colonies, where the rating score was determined from the number of microbial colonies observed on the agar plates. Reported results come from day 7 readings. Table 1 illustrates the rating system used to estimate the level of microbial contamination on streak plates. Colonies refers to the number of colonies on the plate.

SMILES	microbial challenge test (by acid)	microbial challenge test at a pH of 2.8 (pH of 2.8)	microbial challenge test at a pH of 3.3 (pH of 3.3)
O=P(O)(O)O [phosphoric acid]	passed	not optimal	failed
O=S(=O)(O)O [Example H2SO4, sulfuric acid]	passed		
O=P(O)(O)CN(CP(=O)(O)O)CP(=O)(O)O [NTMTPA, nitrilotris(methylene)triphosphonic acid]	passed		
Cl [HCl, hydrochloric acid]	passed		
